Laboratory results as given in patent EP0406111A1, “Substituted arylamines and heteroarylamines, process for their preparation and pharmaceutical composition containing them” (SOCIETE DE CONSEILS DE […] D'APPLICATIONS SCIENTIFIQUES …, priority 1989, dated 1991).

What was measured:
[1] = target: T1, capture de noradrénaline (Rattus norvegicus, UniProt Q63380); test: Tritiated noradrenaline uptake by crude synaptosomal preparations of rat hypothalamus (Example 37); type: biochemical; conditions: rat hypothalamus synaptosomes, 50 nM tritiated noradrenaline, 10 min at 37°C; read-out: Capture 3H-NA IC₅₀
T1 construct: préparations synaptosomales brutes d'hypothalamus de rats; from tissue; host or cells: male Sprague-Dawley rat hypothalamus, crude synaptosomal fraction
T1 sequence (Q63380 1-617): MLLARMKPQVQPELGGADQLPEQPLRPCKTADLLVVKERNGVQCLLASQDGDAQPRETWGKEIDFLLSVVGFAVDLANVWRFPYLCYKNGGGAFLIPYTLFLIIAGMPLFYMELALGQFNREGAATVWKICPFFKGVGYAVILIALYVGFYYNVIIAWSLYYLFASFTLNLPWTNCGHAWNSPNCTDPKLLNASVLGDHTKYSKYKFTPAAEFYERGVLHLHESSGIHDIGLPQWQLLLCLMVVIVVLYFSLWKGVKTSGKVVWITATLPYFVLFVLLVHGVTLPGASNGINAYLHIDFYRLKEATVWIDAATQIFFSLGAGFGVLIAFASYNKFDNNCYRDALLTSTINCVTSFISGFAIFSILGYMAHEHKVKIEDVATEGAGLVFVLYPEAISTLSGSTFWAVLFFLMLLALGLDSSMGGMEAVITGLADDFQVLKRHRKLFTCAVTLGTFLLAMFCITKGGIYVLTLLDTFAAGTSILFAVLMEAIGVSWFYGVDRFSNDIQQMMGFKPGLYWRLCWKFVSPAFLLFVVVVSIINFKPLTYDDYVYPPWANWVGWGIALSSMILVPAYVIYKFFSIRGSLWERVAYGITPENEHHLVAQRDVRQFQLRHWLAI
Procedure: Exemple 37 : Mesure de la capture de noradrénaline.
La capture de noradrénaline tritiée (40 Ci/mmole) est évaluée à partir de préparations synaptosomales brutes d'hypothalamus de rats (Sprague-Dawley mâle, 200-300g, Charles River, St Aubin lès Elbeuf, France).
Les animaux sont sacrifiés par décapitation et les cerveaux sont rapidement dégagés. Les hypothalami, disséqués à 0-4°C, sont homogénéisés dans 10 volumes (poids/volume) de saccharose 0,32 M préalablement refroidi, au moyen d'un homogénéiseur type Potter-Elvejhem (clairance 80-130 µm, 800 rpm). Les débris cellulaires et le matériel nucléaire sont éliminés par centrifugation (1000 g, 10 min, 4°C). Le surnageant constitue la fraction synaptosomale brute.
Des aliquots (50 µl) de préparation synaptosomale sont préincubés pendant 5 minutes à 37°C, en présence de pargyline 20 µM, et de concentrations croissantes des composés à tester, dans […] d'un milieu Krebs-Ringer enrichi en glucose (composition en mM : NaCl 103, CaCl₂1, MgCl₂ 1, KH₂PO₄ 1, NaHCO₃ 27, acide ascorbique 0,1, glucose 5,4). A l'issue de cette préincubation, la noradrénaline tritiée (concentration finale 50 nM) est ajoutée sous un volume de 40 µl, et l'incubation est poursuivie à 37°C pendant 10 minutes. La réaction est arrêtée par dilution avec 2 ml de milieu glacé et centrifugation (7000 g, 10 minutes, 4°C). Après lavage du culot de centrifugation dans 1 ml de milieu glacé, l'échantillon est à nouveau centrifugé dans les mêmes conditions. Le culot obtenu est remis en suspension dans 250 µl d'eau distillée par sonication (Sonotrode TC 4C). 100 µl de cette suspension sont utilisés pour la mesure de la radioactivité par scintillation liquide (SL 2000, Kontron intertechniques, Trappes, France) et 50 µl pour la détermination des taux de protéines (selon la méthode de Lowry et al.).
La capture non spécifique est étudiée simultanément à 0°C en présence des différentes concentrations de composé.
La capture spécifique (capture totale - capture à 0°C) est exprimée en fentomoles/mg de protéines.
Pour chaque concentration étudiée la mesure était faite en double, 3 à 5 expériences étant pratiquées à des jours différents (préparations synaptosomales différentes). Pour chaque composé, au moins 4 concentrations ont été étudiées (entre 10⁻⁹ et 10⁻⁶M habituellement).

[2] = target: T2, recapture de la dopamine (Rattus norvegicus, UniProt P23977); test: Inhibition of (3H)DA reuptake in primary cultured neurons (Example 39); type: cell-based; conditions: for Recapture de (³H)DA nH (nombre de Hill) / IC50: cultured neurons from rat embryos; for IC50: 10⁻⁸M (3H)DA, 10 min at 37°C, read-out: Recapture de (³H)DA IC 50
T2 construct: Cultures primaires de neurones; endogenous in cells; host or cells: primary neurons from substantia nigra of 14-day rat embryos
T2 sequence (P23977 whole entry): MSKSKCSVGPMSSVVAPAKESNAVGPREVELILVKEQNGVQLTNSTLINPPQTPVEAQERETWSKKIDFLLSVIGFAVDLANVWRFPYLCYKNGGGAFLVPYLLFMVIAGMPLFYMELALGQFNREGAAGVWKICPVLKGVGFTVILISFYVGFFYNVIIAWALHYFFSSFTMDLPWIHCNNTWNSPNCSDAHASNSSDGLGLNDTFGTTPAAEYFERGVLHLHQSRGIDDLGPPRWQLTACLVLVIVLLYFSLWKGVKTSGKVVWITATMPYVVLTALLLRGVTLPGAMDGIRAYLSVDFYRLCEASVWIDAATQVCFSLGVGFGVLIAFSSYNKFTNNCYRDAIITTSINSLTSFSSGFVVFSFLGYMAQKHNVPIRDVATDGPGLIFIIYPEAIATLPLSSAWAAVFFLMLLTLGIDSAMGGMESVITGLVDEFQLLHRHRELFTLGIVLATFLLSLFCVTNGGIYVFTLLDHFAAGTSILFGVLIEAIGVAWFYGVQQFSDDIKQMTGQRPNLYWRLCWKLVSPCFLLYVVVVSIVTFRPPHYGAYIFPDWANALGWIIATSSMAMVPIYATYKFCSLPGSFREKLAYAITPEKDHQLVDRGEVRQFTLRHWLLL
Text: Exemple 39 : Etude de l'inhibition de la recapture de la dopamine et de la noradrénaline sur des neurones en culture.
a) Cultures primaires de neurones.
La substance noire, structure riche en cellules dopaminergiques, ou le locus coeruleus, contenant les corps cellulaires noradrénergiques, sont disséqués à partir d'embryons de rats de 14 jours, âge auquel les cellules ont terminé leur mitose. Les cellules sont dissociées mécaniquement dans un milieu sans calcium ni magnésium.
L'ensemencement est réalisé dans des puits prétraités avec de la D-polylysine, à une densité de 150 000 cellules/puits, dans 400µl de milieu de culture composé de 70% de M.E.M.; 25% de Hanks; 5% de Nu-serum décomplémenté; plus 3% de D-glucose (1/20).
Le milieu de culture est renouvelé au tiers tous les trois jours, jusqu'à 9 jours de développement "in vitro", âge auquel les cellules paraissent matures. A cet âge, la culture ne présente pas encore de cellule gliales.
b) Test d'inhibition de la recapture de la dopamine et de la noradrénaline.
On pré-incube les cellules obtenues en a) pendand 15min, à la température ambiante, avec 40µl d'un tampon constitué par le Ringer Phosphate-disodique 5 mM pH=7,6 dont la composition en concentrations finales est la suivante : NaCl 120mM; CaCl₂ 2,6 mM; MgCl₂ 1,3 mM; KCl 5mM; D-glucose 3 mM; Na₂HPO₄5mM.
On incube ensuite pendant 10min à 37°C avec le même tampon en présence de (³H)Da ou de (³H)NA à une concentration finale 10⁻⁸M et une dilution isotopique de 1/5, et de concentrations croissantes en composé à tester dans un volume final de 400µl.
On rince ensuite trois fois rapidement avec 750µl du même tampon à 4°C, ce qui correspond à une durée totale de 10 secondes.
On récupère alors les cellules dans 2 fois 500µl de NaOH 0,5N et on détermine leur radioactivité par comptage avec 4ml de scintillant et 50µl d'acide acétique glacial.
Avant les rinçages, on a prélevé un aliquote de 100µl du milieu d'incubation et on a déterminé la radioactivité libre sur celui-ci par comptage avec 5ml de scintillant.
La recapture spécifique de la (³H)DA ou de (³H)NA est déduite de la différence entre la recapture totale et la diffusion passive pour chacun des composés testés.

Row | Structure (SMILES) | IC50 [1] [nM] | Recapture de la dopamine, result in words ([2]; cultured neurons) | Recapture de (³H)DA nH (nombre de Hill) [2] | IC50 [2] [nM]
1 | C[C@H]1CC[C@](c2cc3ccccc3s2)(N2CCCCC2)CC1 [composé n^o 20, (benzo(b)thiophényl-2)-1-t-méthyl-4-r-(pipéridino-1)-1 cyclohexane] | 94.3 | – | – | –
2 | BrCC1CCCN(C2(c3cc4ccccc4s3)CCCCC2)C1 (centres unmarked) [composé n^o 10, (benzo(b)thiophényl-2)-1 ((bromométhyl-3 pipéridino)-1)-1 cyclohexane] | 196 ± 31 | – | – | –
3 | CC1CC(C)CN(C2(c3cc4ccccc4s3)CCCCC2)C1 (centres unmarked) [composé n^o 6, (benzo(b)thiophényl-2)-1 ((diméthyl-3,5 pipéridino)-1)-1 cyclohexane] | 12.5 | inhibiteur très puissant | 0,95 | 1.47
4 | c1ccc2oc(C3(N4CCCCC4)CCCCC3)cc2c1 [composé n^o 4, (benzo(b)furannyl-2)-1 (pipéridino-1)-1 cyclohexane] | 22.2 | – | – | –
5 | c1ccc2sc(C3(N4CCCCC4)CCCCC3)cc2c1 [BTCP, (benzo(b)thiophényl-2)-1 (pipéridino -1) cyclohexane, reference compound] | 18.3 | – | – | –
6 | CC1CCCN(C2(c3cc4ccccc4s3)CCCCC2)C1 (centres unmarked) [composé n^o 2, (benzo(b)thiophényl-2)-1 ((méthyl-3 pipéridino)-1)-1 cyclohexane] | 40 ± 0.5 | – | 0,95 | 70
7 | C[C@H]1CC[C@@](c2cc3ccccc3s2)(N2CCCCC2)CC1 [composé n^o 21, (benzo(b)thiophényl-2)-1 c-méthyl-4-r-(pipéridino-1)-1 cyclohexane] | 16.5 | – | 1,07 | 8
8 | OC1CCN(C2(c3cc4ccccc4s3)CCCCC2)CC1 [composé 26, (benzo(b)thiophényl-2)-1( (ol-4-pipéridino)-1)-1 cyclohexane] | – | – | 1,09 | 17
9 | CCCN(CCC)C1(c2cc3ccccc3s2)CCCCC1 [composé no 3, (benzo(b)thiophényl-2)-1 (dipropylamino-1)-1 cyclohexane] | 22.7 | – | – | –
